According to US10765114B2, “4-amino-6-(pyridyl and 2-substitutedphenyl)-picolinates and 6-amino-2-(pyridyl and 2-substitutedphenyl)-pyrimidine-4-carboxylates and their use as herbicides” (Dow AgroSciences LLC, priority 2013, dated 2020):

Assays:
Assay in all cases: Pre-Emergent Test I
Type in all cases: in vivo
Conditions in all cases: preemergence
[1] = test system: ECHSS (ECHCG: barnyardgrass (Echinochloa crus-galli))
Description: (§1) Pre-Emergent Test I Seeds of test species were planted into round plastic pots (5-inch diameter) containing sandy loam soil. After planting, all pots were sub-irrigated 16 h prior to compound application. Compounds were dissolved in a 97:3 v/v mixture of acetone and DMSO and diluted to the appropriate concentration in a final application solution containing water, acetone, isopropanol, DMSO and Agri-dex (crop oil concentrate) in a 59:23:15:1.0:1.5 v/v ratio and 0.02% w/v (weight/volume) of Triton X-155 to obtain the spray solution containing the highest application rate. Additional application rates were obtained by serial dilution of the high rate solution with the above application solution Formulated compound (2.7 mL) was pipetted evenly over the soil surface followed by incorporation with water (15 mL). Following treatment, pots were returned to the greenhouse for the duration of the experiment. The greenhouse was programmed for an approximate 15 h photoperiod which was maintained at about 23-29° C. during the day and 22-28° C. during the night. Nutrients and water were added on a regular basis through surface irrigation and supplemental lighting was provided with overhead metal halide 1000-Watt lamps as necessary. Herbicidal effect ratings were obtained 14 days after treatment. All evaluations were made relative to appropriate controls on a scale of 0 to 100 where 0 represents no herbicidal effect and 100 represents plant death or lack of emergence from the soil and presented in Table A. Some of the compounds tested, application rates employed, plant species tested, and results are given in Table 4.

[2] = test system: AVEFA: wild oats (Avena fatua)
Description: as §1

[3] = test system: AMARE: redroot pigwseed (Amaranthus retroflexus)
Description: as §1

[4] = test system: IPOSS (IPOHE: ivyleaf morningglory (Ipomoea hederecea))
Description: as §1

[5] = test system: HELAN: sunflower (Helianthus annuus)
Description: as §1

[6] = test system: SETFA: giant foxtail (Setaria faberi)
Description: as §1

SMILES: COC(=O)c1nc(-c2ccc(Cl)nc2F)cc(N)c1Cl [Compound 17, methyl 4-amino-5,6′-dichloro-2′-fluoro-[2,3′-bipyridine]-6-carboxylate]
- Visual Growth Reduction (%) 14 Days After Application, ECHSS ([1]; 3.8 kg ai/ha): F (30-44)
- Visual Growth Reduction (%) 14 Days After Application, AVEFA ([2]; 3.8 kg ai/ha): G (0-29)
- Visual Growth Reduction (%) 14 Days After Application, AMARE ([3]; 3.8 kg ai/ha): A (95-100)
- Visual Growth Reduction (%) 14 Days After Application, IPOSS ([4]; 3.8 kg ai/ha): A (95-100)
- Visual Growth Reduction (%) 14 Days After Application, HELAN ([5]; 3.8 kg ai/ha): A (95-100)
- Visual Growth Reduction (%) 14 Days After Application, SETFA ([6]; 3.8 kg ai/ha): G (0-29)

SMILES: COC(=O)c1nc(-c2ccc(C(F)(F)F)nc2)cc(N)c1Cl [Compound 4]
- Visual Growth Reduction (%) 14 Days After Application, ECHSS ([1]; 4 kg ai/ha): F (30-44)
- Visual Growth Reduction (%) 14 Days After Application, AVEFA ([2]; 4 kg ai/ha): G (0-29)
- Visual Growth Reduction (%) 14 Days After Application, AMARE ([3]; 4 kg ai/ha): D (60-74)
- Visual Growth Reduction (%) 14 Days After Application, IPOSS ([4]; 4 kg ai/ha): G (0-29)
- Visual Growth Reduction (%) 14 Days After Application, HELAN ([5]; 4 kg ai/ha): G (0-29)
- Visual Growth Reduction (%) 14 Days After Application, SETFA ([6]; 4 kg ai/ha): F (30-44)
